Test results reported in PubChem BioAssay (NCI).
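Values below derive from 48-hour exposures of cells grown in 96-well plates, with endpoints linearly interpolated between the two concentrations bracketing the appropriate inhibition level. The concentration for full growth arrest is given as TGI.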

Legend:
Assay in all cases: NCI tumour cell line growth inhibition, 48 h
786-0 renal = tested on: 786-0 renal
A498 renal = tested on: A498 renal
A549 NSCLC = tested on: A549 NSCLC
ACHN renal = tested on: ACHN renal
BT-549 breast = tested on: BT-549 breast
CCRF-CEM leukemia = tested on: CCRF-CEM leukemia
COLO 205 colon = tested on: COLO 205 colon
DU-145 prostate = tested on: DU-145 prostate
EKVX NSCLC = tested on: EKVX NSCLC
HCC-2998 colon = tested on: HCC-2998 colon
HCT-116 colon = tested on: HCT-116 colon
HCT-15 colon = tested on: HCT-15 colon
HL-60(TB) leukemia = tested on: HL-60(TB) leukemia
HOP-62 NSCLC = tested on: HOP-62 NSCLC
HOP-92 NSCLC = tested on: HOP-92 NSCLC
HS 578T breast = tested on: HS 578T breast
HT29 colon = tested on: HT29 colon
IGROV1 ovarian = tested on: IGROV1 ovarian
K-562 leukemia = tested on: K-562 leukemia
KM12 colon = tested on: KM12 colon
LOX IMVI melanoma = tested on: LOX IMVI melanoma
M14 melanoma = tested on: M14 melanoma
MALME-3M melanoma = tested on: MALME-3M melanoma
MCF7 breast = tested on: MCF7 breast
MDA-MB-231 breast = tested on: MDA-MB-231 breast
MDA-MB-435 = tested on: MDA-MB-435
MDA-N = tested on: MDA-N
MOLT-4 leukemia = tested on: MOLT-4 leukemia
NCI-H226 lung = tested on: NCI-H226 lung
NCI-H23 lung = tested on: NCI-H23 lung
NCI-H460 lung = tested on: NCI-H460 lung
NCI-H522 lung = tested on: NCI-H522 lung
NCI/ADR-RES ovarian = tested on: NCI/ADR-RES ovarian
OVCAR-3 ovarian = tested on: OVCAR-3 ovarian
OVCAR-4 ovarian = tested on: OVCAR-4 ovarian
OVCAR-5 ovarian = tested on: OVCAR-5 ovarian
OVCAR-8 ovarian = tested on: OVCAR-8 ovarian
PC-3 prostate = tested on: PC-3 prostate
RXF 393 renal = tested on: RXF 393 renal
SF-268 CNS = tested on: SF-268 CNS
SF-295 CNS = tested on: SF-295 CNS
SF-539 CNS = tested on: SF-539 CNS
SK-MEL-2 melanoma = tested on: SK-MEL-2 melanoma
SK-MEL-28 melanoma = tested on: SK-MEL-28 melanoma
SK-MEL-5 melanoma = tested on: SK-MEL-5 melanoma
SK-OV-3 ovarian = tested on: SK-OV-3 ovarian
SN12C renal = tested on: SN12C renal
SNB-19 CNS = tested on: SNB-19 CNS
SNB-75 CNS = tested on: SNB-75 CNS
SR leukemia = tested on: SR leukemia
SW-620 colon = tested on: SW-620 colon
T-47D breast = tested on: T-47D breast
TK-10 renal = tested on: TK-10 renal
U251 CNS = tested on: U251 CNS
UACC-257 melanoma = tested on: UACC-257 melanoma
UACC-62 melanoma = tested on: UACC-62 melanoma
UO-31 renal = tested on: UO-31 renal
CAKI-1 renal = tested on: CAKI-1 renal
RPMI-8226 leukemia = tested on: RPMI-8226 leukemia

CCOC1(OCC)C2C=CC1C(COS(=O)(=O)c1ccc(C)cc1)C2COS(=O)(=O)c1ccc(C)cc1 (stereo not given)
TGI (786-0 renal): > 100 µM | TGI (A498 renal): 54.9 µM | TGI (A549 NSCLC): > 100 µM | TGI (ACHN renal): > 100 µM | TGI (BT-549 breast): > 100 µM | TGI (CCRF-CEM leukemia): > 100 µM | TGI (COLO 205 colon): 50.7 µM | TGI (DU-145 prostate): > 100 µM | TGI (EKVX NSCLC): > 100 µM | TGI (HCC-2998 colon): > 100 µM | TGI (HCT-116 colon): 77.1 µM | TGI (HCT-15 colon): > 100 µM | TGI (HL-60(TB) leukemia): 42.4 µM | TGI (HOP-62 NSCLC): > 100 µM | TGI (HOP-92 NSCLC): 48 µM | TGI (HS 578T breast): > 100 µM | TGI (HT29 colon): > 100 µM | TGI (IGROV1 ovarian): > 100 µM | TGI (K-562 leukemia): > 100 µM | TGI (KM12 colon): > 100 µM | TGI (LOX IMVI melanoma): > 100 µM | TGI (M14 melanoma): 96.5 µM | TGI (MALME-3M melanoma): 77.1 µM | TGI (MCF7 breast): > 100 µM | TGI (MDA-MB-231 breast): 69.5 µM | TGI (MDA-MB-435): > 100 µM | TGI (MDA-N): > 100 µM | TGI (MOLT-4 leukemia): 99.3 µM | TGI (NCI-H226 lung): 91.1 µM | TGI (NCI-H23 lung): > 100 µM | TGI (NCI-H460 lung): > 100 µM | TGI (NCI-H522 lung): 57.1 µM | TGI (NCI/ADR-RES ovarian): > 100 µM | TGI (OVCAR-3 ovarian): > 100 µM | TGI (OVCAR-4 ovarian): 79.2 µM | TGI (OVCAR-5 ovarian): > 100 µM | TGI (OVCAR-8 ovarian): > 100 µM | TGI (PC-3 prostate): 74.6 µM | TGI (RXF 393 renal): > 100 µM | TGI (SF-268 CNS): > 100 µM | TGI (SF-295 CNS): > 100 µM | TGI (SF-539 CNS): > 100 µM | TGI (SK-MEL-2 melanoma): 80.9 µM | TGI (SK-MEL-28 melanoma): > 100 µM | TGI (SK-MEL-5 melanoma): 31 µM | TGI (SK-OV-3 ovarian): > 100 µM | TGI (SN12C renal): > 100 µM | TGI (SNB-19 CNS): > 100 µM | TGI (SNB-75 CNS): > 100 µM | TGI (SR leukemia): 58.6 µM | TGI (SW-620 colon): > 100 µM | TGI (T-47D breast): 85.1 µM | TGI (TK-10 renal): > 100 µM | TGI (U251 CNS): > 100 µM | TGI (UACC-257 melanoma): 62.2 µM | TGI (UACC-62 melanoma): > 100 µM | TGI (UO-31 renal): > 100 µM

COc1cccc(C2c3cc4c(cc3OC(N3CCCCC3)C2C)OCO4)c1O (stereo not given)
TGI (786-0 renal): 26.2 µM | TGI (A549 NSCLC): > 66.5 µM | TGI (ACHN renal): 56.5 µM | TGI (BT-549 breast): 54.9 µM | TGI (CAKI-1 renal): > 53 µM | TGI (CCRF-CEM leukemia): 13.9 µM | TGI (COLO 205 colon): 25.5 µM | TGI (DU-145 prostate): 96.9 µM | TGI (EKVX NSCLC): 56.8 µM | TGI (HCC-2998 colon): 25.6 µM | TGI (HCT-116 colon): 19.9 µM | TGI (HCT-15 colon): 19.9 µM | TGI (HL-60(TB) leukemia): 5.92 µM | TGI (HOP-62 NSCLC): 13.7 µM | TGI (HOP-92 NSCLC): 46.8 µM | TGI (HS 578T breast): > 26.4 µM | TGI (HT29 colon): 13.3 µM | TGI (IGROV1 ovarian): > 100 µM | TGI (K-562 leukemia): 12.7 µM | TGI (KM12 colon): 23.1 µM | TGI (LOX IMVI melanoma): 41.7 µM | TGI (M14 melanoma): 22.6 µM | TGI (MALME-3M melanoma): 36.1 µM | TGI (MCF7 breast): 57.7 µM | TGI (MDA-MB-231 breast): > 56.7 µM | TGI (MDA-MB-435): 6.82 µM | TGI (MDA-N): 7.71 µM | TGI (MOLT-4 leukemia): 37.6 µM | TGI (NCI-H226 lung): 46.7 µM | TGI (NCI-H23 lung): > 71.6 µM | TGI (NCI-H460 lung): 24.4 µM | TGI (NCI-H522 lung): 8.53 µM | TGI (NCI/ADR-RES ovarian): > 100 µM | TGI (OVCAR-3 ovarian): 9.14 µM | TGI (OVCAR-4 ovarian): > 100 µM | TGI (OVCAR-5 ovarian): 57.7 µM | TGI (OVCAR-8 ovarian): > 36.5 µM | TGI (PC-3 prostate): > 79.8 µM | TGI (RPMI-8226 leukemia): 12.3 µM | TGI (RXF 393 renal): 18.7 µM | TGI (SF-268 CNS): 99.8 µM | TGI (SF-295 CNS): 24.3 µM | TGI (SF-539 CNS): 5.82 µM | TGI (SK-MEL-2 melanoma): 42.5 µM | TGI (SK-MEL-28 melanoma): 73.2 µM | TGI (SK-MEL-5 melanoma): 16.3 µM | TGI (SK-OV-3 ovarian): > 79.1 µM | TGI (SN12C renal): 19.4 µM | TGI (SNB-19 CNS): > 100 µM | TGI (SNB-75 CNS): 68.5 µM | TGI (SR leukemia): 11.8 µM | TGI (SW-620 colon): > 87.8 µM | TGI (T-47D breast): 80 µM | TGI (TK-10 renal): 62.8 µM | TGI (U251 CNS): 16.2 µM | TGI (UACC-257 melanoma): > 56.6 µM | TGI (UACC-62 melanoma): 28.2 µM | TGI (UO-31 renal): 81.1 µM
